System: Acinetobacter tartarogenes KB-112
Assay: Effect of nonionic surfactant (0.1 %) on conversion of calcium cis-epoxysuccinate to L(+)-tartaric acid
Type: cell-based
Details: 30° C., 2 days; for Mole Yields (%) of L(+)-tartaric acid: cis-epoxysuccinate 40 % as free acid, particle size 60 micron, not added: 34; for Rate of Residues (%) of cis-epoxysuccinic acid: residue of 12 g as free acid = 100 %, not added: 64
Protocol: Acinetobacter tartarogenes KB-112 are used to inoculate 30 ml of culture medium, contained in the Erlenmeyer flask of 200 ml-capacity, which culture medium having been set up into such constitution that, to the basic culture medium which is composed of casamino acid (0.05 %), ammonium nitrate (0.1 %), dipotassium hydrogen phosphate (0.2 %), magnesium sulfate (0.05 %), ferrous sulfate (0.001 %), pH 7.0, various sorts of nonionic surfactants are added so that the respective kinds of surface active agents may come to the concentration of 0.1 %. And simultaneously, the crystals of calcium cis-epoxysuccinate (average particle size: 60 micron) is added, in such way that it may come to the final concentration of 40 % counted as the free acid; and the above mixture is subjected to rotatory shake culture at 30° C., and for 2 days, and thence being allowed to exert reaction effect. After the termination of reaction, and the crystals are collected by filtration and, after addition of sulfuric acid, subjected to centrifugal separator to eliminate the solid substances. Subsequently, the quantitative determinations are made, with respect to L(+)-tartaric acid, by depending upon the optical rotation at 436 mμ; and with respect to the remaining cis-epoxysuccinic acid, by using Payne & Williams Method (G. B. Payne and P. H. Williams: Journal of Organic Chemistry, 24, 54, (1959)).

Compound | Mole Yields (%) of L(+)-tartaric acid [%] | Rate of Residues (%) of cis-epoxysuccinic acid [%]
Sorbitan monooleate [NIKKOL SR-10] | 45 | 52
Propyleneglycol monostearate [NIKKOL PMS-SE] | 46 | 50
CCCCCCCCCCCCCCCCCC(=O)OCC(O)CO (stereo not drawn) [NIKKOL MGS-C, Glyceryl monostearate] | 48 | 47
